From ChEMBL document CHEMBL5291721, “A preclinical secondary pharmacology resource illuminates target-adverse drug reaction associations of marketed drugs” (Nat Commun, 2023)

Tests used:
[1] = molecular target: cGMP-inhibited 3',5'-cyclic phosphodiesterase 3A (Homo sapiens, UniProt Q14432); type: functional
[2] = molecular target: 5-hydroxytryptamine receptor 2B (Homo sapiens, UniProt P41595); type: functional, cell-based
[3] = molecular target: T1, Type-1 angiotensin II receptor (Homo sapiens, UniProt P30556)
T1 sequence (P30556 whole entry): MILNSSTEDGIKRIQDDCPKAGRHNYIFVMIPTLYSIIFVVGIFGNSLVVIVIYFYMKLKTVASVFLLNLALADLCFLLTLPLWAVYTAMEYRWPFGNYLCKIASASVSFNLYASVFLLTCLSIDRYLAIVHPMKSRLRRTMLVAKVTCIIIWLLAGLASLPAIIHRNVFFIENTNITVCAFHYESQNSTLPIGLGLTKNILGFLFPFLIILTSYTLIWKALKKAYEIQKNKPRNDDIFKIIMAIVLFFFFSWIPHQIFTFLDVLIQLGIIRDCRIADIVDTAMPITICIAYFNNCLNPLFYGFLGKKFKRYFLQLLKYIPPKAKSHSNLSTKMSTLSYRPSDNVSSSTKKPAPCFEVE

[4] = molecular target: Growth hormone secretagogue receptor type 1 (Homo sapiens, UniProt Q92847)
Chain of Growth hormone secretagogue receptor type 1 (Q92847 whole entry): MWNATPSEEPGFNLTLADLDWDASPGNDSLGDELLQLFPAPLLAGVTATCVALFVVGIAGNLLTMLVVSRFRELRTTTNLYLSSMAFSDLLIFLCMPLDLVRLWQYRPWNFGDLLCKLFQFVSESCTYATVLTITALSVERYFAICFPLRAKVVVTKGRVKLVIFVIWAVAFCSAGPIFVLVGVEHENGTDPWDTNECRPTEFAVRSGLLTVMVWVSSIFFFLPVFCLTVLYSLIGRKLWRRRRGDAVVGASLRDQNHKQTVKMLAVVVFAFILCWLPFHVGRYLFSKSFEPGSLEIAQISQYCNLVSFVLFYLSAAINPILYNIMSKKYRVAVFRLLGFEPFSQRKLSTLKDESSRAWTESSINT

[5] = molecular target: T2, 5-hydroxytryptamine receptor 1A (Homo sapiens, UniProt P08908); type: functional, cell-based
T2 sequence (P08908 whole entry): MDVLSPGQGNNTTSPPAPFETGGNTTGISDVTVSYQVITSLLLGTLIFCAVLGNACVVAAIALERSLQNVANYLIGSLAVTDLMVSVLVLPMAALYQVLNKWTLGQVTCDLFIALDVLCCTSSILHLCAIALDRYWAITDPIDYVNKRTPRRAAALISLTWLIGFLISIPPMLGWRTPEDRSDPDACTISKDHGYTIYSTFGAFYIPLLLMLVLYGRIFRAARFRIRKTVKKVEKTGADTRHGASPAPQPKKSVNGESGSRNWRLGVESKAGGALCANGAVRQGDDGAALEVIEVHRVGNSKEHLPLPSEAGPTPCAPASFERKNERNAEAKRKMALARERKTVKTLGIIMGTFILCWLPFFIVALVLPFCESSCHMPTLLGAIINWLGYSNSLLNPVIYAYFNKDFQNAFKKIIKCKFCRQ

[6] = molecular target: Delta-type opioid receptor (Homo sapiens, UniProt P41143)
Chain of Delta-type opioid receptor (P41143 whole entry): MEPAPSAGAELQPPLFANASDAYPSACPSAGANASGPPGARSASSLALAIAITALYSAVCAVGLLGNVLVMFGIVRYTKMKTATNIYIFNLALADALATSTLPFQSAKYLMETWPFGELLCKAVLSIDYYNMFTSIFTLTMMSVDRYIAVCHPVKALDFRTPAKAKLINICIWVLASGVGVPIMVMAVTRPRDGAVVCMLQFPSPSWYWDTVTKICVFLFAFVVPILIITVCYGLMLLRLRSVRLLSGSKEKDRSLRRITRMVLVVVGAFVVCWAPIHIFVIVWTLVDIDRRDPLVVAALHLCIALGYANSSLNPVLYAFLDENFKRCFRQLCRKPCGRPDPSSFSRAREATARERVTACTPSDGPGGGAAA

Histamine H2 receptor = Histamine H2 receptor (Homo sapiens, UniProt P25021); type: functional, cell-based
Chain of Histamine H2 receptor (P25021 whole entry): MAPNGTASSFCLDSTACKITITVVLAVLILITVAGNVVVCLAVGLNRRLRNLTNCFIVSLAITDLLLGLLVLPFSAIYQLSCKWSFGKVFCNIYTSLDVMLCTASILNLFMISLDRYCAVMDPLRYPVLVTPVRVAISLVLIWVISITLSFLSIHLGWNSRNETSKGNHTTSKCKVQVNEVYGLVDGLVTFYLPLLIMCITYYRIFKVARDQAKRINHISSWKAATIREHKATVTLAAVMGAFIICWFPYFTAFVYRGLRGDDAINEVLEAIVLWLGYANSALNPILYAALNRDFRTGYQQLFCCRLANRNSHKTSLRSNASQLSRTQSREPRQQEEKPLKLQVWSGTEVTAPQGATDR

[7] = molecular target: Neuronal acetylcholine receptor subunit alpha-4 (Homo sapiens, UniProt P43681)
Chain of Neuronal acetylcholine receptor subunit alpha-4 (P43681 whole entry): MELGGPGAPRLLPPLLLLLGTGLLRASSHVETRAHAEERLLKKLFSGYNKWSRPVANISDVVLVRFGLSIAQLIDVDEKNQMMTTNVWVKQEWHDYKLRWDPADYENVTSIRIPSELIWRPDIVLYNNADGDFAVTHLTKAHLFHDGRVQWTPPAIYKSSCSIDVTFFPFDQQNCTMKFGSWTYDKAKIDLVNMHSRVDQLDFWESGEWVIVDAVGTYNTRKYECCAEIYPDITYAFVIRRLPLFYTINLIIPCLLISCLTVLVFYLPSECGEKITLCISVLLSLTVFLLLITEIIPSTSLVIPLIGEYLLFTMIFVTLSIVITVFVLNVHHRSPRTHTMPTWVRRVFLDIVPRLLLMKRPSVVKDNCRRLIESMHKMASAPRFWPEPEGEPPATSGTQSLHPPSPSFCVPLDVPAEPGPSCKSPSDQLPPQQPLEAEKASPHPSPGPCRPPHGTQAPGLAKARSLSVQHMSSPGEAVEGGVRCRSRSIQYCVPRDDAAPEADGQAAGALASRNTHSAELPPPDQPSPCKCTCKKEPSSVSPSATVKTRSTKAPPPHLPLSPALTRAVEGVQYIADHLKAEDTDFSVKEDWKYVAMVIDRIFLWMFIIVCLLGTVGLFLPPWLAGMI

[8] = molecular target: Gamma-aminobutyric acid receptor subunit alpha-1 (Rattus norvegicus, UniProt P62813); type: functional
Chain of Gamma-aminobutyric acid receptor subunit alpha-1 (P62813 whole entry): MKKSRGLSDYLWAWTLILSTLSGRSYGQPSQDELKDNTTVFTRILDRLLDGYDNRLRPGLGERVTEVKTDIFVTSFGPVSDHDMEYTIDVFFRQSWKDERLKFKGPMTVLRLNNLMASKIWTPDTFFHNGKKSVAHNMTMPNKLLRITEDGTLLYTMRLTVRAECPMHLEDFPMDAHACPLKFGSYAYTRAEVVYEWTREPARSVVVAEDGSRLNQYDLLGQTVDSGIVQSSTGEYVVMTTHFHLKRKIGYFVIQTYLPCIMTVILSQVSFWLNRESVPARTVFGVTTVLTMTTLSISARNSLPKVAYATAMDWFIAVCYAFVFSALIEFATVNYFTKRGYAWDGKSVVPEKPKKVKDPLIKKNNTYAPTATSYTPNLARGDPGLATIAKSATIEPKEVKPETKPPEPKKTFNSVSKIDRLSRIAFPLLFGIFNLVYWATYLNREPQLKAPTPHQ

D(1A) dopamine receptor = D(1A) dopamine receptor (Homo sapiens, UniProt P21728); type: functional, cell-based
[9] = molecular target: Muscarinic acetylcholine receptor M3 (Homo sapiens, UniProt P20309)
Chain of Muscarinic acetylcholine receptor M3 (P20309 whole entry): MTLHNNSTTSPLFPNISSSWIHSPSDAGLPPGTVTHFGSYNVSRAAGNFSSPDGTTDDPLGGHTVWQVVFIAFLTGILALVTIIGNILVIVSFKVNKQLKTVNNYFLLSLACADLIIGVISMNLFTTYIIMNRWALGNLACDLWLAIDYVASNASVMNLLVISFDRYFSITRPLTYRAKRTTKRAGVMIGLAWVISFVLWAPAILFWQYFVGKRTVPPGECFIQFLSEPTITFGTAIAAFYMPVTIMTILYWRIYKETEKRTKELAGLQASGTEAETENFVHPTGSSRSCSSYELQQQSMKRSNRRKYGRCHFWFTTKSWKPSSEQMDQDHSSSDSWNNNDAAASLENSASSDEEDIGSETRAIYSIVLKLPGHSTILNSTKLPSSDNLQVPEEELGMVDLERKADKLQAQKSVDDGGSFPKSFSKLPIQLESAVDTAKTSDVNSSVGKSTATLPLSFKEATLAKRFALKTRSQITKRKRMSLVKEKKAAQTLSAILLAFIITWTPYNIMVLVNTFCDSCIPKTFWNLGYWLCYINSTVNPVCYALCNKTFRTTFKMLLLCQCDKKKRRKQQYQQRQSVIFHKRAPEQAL

[10] = molecular target: T3, Muscarinic acetylcholine receptor M2 (Homo sapiens, UniProt P08172); type: functional, cell-based
T3 sequence (P08172 whole entry): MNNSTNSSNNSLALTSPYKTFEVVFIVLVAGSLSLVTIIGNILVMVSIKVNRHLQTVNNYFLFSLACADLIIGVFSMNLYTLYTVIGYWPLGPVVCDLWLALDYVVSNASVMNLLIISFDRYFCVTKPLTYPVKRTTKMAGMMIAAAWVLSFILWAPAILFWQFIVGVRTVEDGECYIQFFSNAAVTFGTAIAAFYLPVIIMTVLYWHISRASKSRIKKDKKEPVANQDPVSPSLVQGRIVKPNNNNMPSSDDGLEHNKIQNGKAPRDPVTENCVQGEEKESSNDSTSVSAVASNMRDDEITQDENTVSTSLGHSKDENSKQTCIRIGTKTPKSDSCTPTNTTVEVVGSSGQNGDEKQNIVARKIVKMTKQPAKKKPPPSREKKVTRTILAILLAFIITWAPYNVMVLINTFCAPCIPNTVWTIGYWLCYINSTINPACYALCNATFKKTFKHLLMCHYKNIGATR

[11] = molecular target: Sodium-dependent serotonin transporter (Homo sapiens, UniProt P31645)
Chain of Sodium-dependent serotonin transporter (P31645 whole entry): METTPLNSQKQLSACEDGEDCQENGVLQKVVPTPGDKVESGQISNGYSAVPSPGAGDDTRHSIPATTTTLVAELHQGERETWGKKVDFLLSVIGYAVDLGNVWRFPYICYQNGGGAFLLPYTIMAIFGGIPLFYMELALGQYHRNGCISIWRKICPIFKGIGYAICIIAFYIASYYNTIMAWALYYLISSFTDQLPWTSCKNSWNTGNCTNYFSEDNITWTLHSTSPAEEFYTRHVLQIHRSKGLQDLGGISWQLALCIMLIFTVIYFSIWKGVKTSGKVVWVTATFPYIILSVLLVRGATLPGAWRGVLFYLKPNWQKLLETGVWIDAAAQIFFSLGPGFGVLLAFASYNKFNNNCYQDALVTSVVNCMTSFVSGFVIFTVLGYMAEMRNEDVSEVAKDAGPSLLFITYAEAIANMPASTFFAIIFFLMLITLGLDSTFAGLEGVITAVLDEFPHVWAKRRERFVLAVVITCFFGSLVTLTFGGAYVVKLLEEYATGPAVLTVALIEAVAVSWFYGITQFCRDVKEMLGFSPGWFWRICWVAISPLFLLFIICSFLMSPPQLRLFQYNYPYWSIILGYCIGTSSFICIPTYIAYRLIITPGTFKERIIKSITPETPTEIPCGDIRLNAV

Histamine H1 receptor = Histamine H1 receptor (Homo sapiens, UniProt P35367)
Chain of Histamine H1 receptor (P35367 whole entry): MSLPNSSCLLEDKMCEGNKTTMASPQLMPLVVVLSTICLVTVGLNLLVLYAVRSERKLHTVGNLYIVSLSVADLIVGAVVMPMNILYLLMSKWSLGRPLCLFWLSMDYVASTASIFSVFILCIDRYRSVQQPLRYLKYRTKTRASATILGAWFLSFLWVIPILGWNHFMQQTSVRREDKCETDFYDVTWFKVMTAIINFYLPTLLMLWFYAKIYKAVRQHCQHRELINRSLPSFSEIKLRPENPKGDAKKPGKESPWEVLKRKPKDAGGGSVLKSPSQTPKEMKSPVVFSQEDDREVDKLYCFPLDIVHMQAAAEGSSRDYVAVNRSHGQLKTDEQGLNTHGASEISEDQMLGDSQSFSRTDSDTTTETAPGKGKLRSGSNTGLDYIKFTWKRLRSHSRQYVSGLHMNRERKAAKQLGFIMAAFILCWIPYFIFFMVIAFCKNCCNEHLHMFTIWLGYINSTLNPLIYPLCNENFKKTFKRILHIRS

Mu-type opioid receptor = Mu-type opioid receptor (Homo sapiens, UniProt P35372); assay: biochemical; type: functional
Chain of Mu-type opioid receptor (P35372 whole entry): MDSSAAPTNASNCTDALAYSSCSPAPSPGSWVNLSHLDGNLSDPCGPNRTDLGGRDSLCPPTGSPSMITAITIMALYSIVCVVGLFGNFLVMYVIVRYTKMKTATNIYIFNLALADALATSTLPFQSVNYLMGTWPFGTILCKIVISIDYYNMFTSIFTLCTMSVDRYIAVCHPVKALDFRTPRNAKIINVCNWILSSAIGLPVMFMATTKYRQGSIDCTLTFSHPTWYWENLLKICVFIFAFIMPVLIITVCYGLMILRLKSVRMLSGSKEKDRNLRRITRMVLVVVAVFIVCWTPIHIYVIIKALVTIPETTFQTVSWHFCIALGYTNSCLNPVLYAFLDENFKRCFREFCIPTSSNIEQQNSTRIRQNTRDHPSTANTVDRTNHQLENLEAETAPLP

[12] = molecular target: T4, Gastrin/cholecystokinin type B receptor (Homo sapiens, UniProt P32239)
T4 sequence (P32239 whole entry): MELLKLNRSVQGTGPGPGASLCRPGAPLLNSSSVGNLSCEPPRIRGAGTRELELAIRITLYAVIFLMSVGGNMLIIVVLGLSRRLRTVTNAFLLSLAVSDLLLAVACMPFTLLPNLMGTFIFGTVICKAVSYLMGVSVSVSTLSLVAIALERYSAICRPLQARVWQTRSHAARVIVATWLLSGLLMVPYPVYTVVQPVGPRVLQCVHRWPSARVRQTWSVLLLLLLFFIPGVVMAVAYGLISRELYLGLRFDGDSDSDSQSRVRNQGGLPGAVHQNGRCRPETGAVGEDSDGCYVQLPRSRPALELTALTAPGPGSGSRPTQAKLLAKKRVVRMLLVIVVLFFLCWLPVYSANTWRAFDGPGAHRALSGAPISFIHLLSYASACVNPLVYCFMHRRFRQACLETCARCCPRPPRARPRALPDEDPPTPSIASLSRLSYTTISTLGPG

[13] = molecular target: T5, Alpha-2A adrenergic receptor (Homo sapiens, UniProt P08913); type: functional, cell-based
T5 sequence (P08913 whole entry): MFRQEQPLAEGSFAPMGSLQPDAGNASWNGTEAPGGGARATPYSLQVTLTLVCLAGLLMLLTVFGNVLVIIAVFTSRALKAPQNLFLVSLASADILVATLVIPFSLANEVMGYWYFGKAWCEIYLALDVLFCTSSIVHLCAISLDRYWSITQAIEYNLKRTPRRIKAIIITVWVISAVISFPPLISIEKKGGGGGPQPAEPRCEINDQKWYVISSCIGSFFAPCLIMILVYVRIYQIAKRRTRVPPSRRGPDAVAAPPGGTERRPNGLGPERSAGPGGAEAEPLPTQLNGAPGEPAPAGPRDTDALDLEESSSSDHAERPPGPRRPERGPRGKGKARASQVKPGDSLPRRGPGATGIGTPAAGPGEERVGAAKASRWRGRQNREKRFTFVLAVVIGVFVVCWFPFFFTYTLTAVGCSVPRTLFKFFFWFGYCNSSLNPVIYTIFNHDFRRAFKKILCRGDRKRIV
Also: assay procedure not described here.

Chain of 5-hydroxytryptamine receptor 2B (P41595 whole entry): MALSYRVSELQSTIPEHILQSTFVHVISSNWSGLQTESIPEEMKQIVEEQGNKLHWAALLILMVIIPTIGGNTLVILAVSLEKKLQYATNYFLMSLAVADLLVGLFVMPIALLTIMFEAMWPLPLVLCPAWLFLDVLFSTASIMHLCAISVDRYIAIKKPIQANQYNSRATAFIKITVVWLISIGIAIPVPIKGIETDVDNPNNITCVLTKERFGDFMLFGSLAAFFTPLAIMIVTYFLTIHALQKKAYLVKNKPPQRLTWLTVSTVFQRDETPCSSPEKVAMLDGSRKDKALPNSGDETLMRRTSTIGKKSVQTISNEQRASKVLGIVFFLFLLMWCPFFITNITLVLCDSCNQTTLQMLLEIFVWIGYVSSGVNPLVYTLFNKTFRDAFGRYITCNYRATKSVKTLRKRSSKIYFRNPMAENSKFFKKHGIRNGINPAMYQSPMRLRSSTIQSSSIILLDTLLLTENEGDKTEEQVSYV

Row | Compound | AC50 [1] | AC50 [2] | AC50 [3] | AC50 [4] | AC50 [5] | AC50 [6] | AC50 (Histamine H2 receptor) | AC50 [7] | AC50 [8] | AC50 (D(1A) dopamine receptor) | AC50 [9] | AC50 [10] | AC50 [11] | AC50 (Histamine H1 receptor) | AC50 (Mu-type opioid receptor) | AC50 [12] | AC50 [13]
1 | CC(Oc1c(Cl)cccc1Cl)C1=NCCN1 (stereo not drawn) [LOFEXIDINE] | > 30 µM | > 30 µM | > 30 µM | > 30 µM | 1.1 µM | > 30 µM | > 30 µM | > 30 µM | > 30 µM | > 30 µM | > 30 µM | > 30 µM | 11 µM | > 30 µM | > 30 µM | > 30 µM | –
2 | C[C@H](CSC(=O)c1ccccc1)C(=O)N1C[C@@H](Sc2ccccc2)C[C@H]1C(=O)O [ZOFENOPRIL] | > 30 µM | > 10 µM | > 10 µM | > 10 µM | > 10 µM | > 30 µM | > 10 µM | > 10 µM | > 10 µM | > 10 µM | > 30 µM | > 10 µM | > 10 µM | > 10 µM | > 30 µM | – | > 10 µM
3 | C#C[C@]1(O)CC[C@H]2[C@@H]3CCc4cc(OC5CCCC5)ccc4[C@H]3CC[C@@]21C [QUINESTROL] | > 30 µM | > 10 µM | > 10 µM | > 10 µM | > 10 µM | > 30 µM | > 10 µM | > 10 µM | > 10 µM | > 10 µM | > 30 µM | > 10 µM | > 10 µM | > 10 µM | > 30 µM | – | > 10 µM
4 | C[C@]1(O)CC[C@H]2[C@@H]3CCC4=CC(=O)CC[C@]4(C)[C@@]3(F)[C@@H](O)C[C@@]21C [FLUOXYMESTERONE] | > 30 µM | > 10 µM | > 10 µM | > 10 µM | > 10 µM | > 30 µM | > 30 µM | > 10 µM | > 10 µM | > 30 µM | > 30 µM | > 10 µM | > 10 µM | > 30 µM | > 30 µM | – | > 10 µM
5 | Clc1ccc(CCCOCCCN2CCCCC2)cc1 [PITOLISANT] | > 30 µM | > 30 µM | > 30 µM | > 30 µM | > 30 µM | > 30 µM | > 30 µM | > 30 µM | > 30 µM | > 30 µM | > 30 µM | 15 µM | 9.9 µM | 11 µM | > 30 µM | > 30 µM | –
6 | CCCCCCOc1ccccc1C(N)=O [EXALAMIDE] | > 30 µM | > 30 µM | > 30 µM | > 30 µM | > 30 µM | > 30 µM | > 30 µM | > 30 µM | > 30 µM | > 30 µM | > 30 µM | – | > 30 µM | > 30 µM | > 30 µM | > 30 µM | > 30 µM
7 | C[C@H](N)[C@H](O)c1cccc(O)c1 [METARAMINOL] | > 30 µM | 12 µM | > 10 µM | > 10 µM | > 10 µM | > 30 µM | > 30 µM | > 10 µM | > 10 µM | > 30 µM | > 30 µM | > 10 µM | > 10 µM | > 10 µM | > 30 µM | – | > 10 µM
8 | CO[C@@H]1[C@@H](O[C@@H]2O[C@H](C)[C@@H](O[C@H]3C[C@@](C)(O)[C@@H](OC(=O)CC(C)C)[C@H](C)O3)[C@H](N(C)C)[C@H]2O)[C@@H](CC=O)C[C@@H](C)[C@@H](O)/C=C/C=C/C[C@@H](C)OC(=O)C[C@H]1OC(C)=O [JOSAMYCIN] | > 30 µM | > 10 µM | > 10 µM | > 10 µM | > 10 µM | > 30 µM | > 10 µM | > 10 µM | > 10 µM | > 10 µM | > 30 µM | > 10 µM | > 10 µM | > 10 µM | > 30 µM | – | > 10 µM
9 | CN1C(=O)C(O)N=C(c2ccccc2Cl)c2cc(Cl)ccc21 (stereo not drawn) [LORMETAZEPAM] | > 10 µM | > 30 µM | > 30 µM | > 30 µM | > 30 µM | > 30 µM | > 30 µM | > 30 µM | 0.0014 µM | > 30 µM | > 30 µM | – | > 30 µM | > 30 µM | > 30 µM | > 30 µM | –
10 | CO/N=C(\C(=O)N[C@@H]1C(=O)N2C(C(=O)O)=C(CSc3nnnn3C)CS[C@H]12)c1csc(N)n1 [CEFMENOXIME] | > 30 µM | > 30 µM | > 30 µM | > 30 µM | > 30 µM | – | > 30 µM | > 30 µM | – | > 30 µM | – | > 30 µM | > 30 µM | > 30 µM | > 30 µM | > 30 µM | > 30 µM
11 | C=CCC1(CC(C)C)C(=O)NC(=O)NC1=O [BUTALBITAL] | > 30 µM | > 10 µM | > 30 µM | > 10 µM | > 10 µM | > 30 µM | > 30 µM | > 10 µM | > 10 µM | > 30 µM | > 30 µM | > 10 µM | > 10 µM | > 30 µM | > 30 µM | – | > 10 µM
